# Columns and labels:
# Assay type in all cases: cell-based
# HL-60(TB) = test: NCI 60 five-dose screen HL-60(TB); settings: Homo sapiens
# K-562 = test: NCI 60 five-dose screen K-562; settings: Homo sapiens
# A549/ATCC = test: NCI 60 five-dose screen A549/ATCC; settings: Homo sapiens
# HOP-62 = test: NCI 60 five-dose screen HOP-62; settings: Homo sapiens
# HOP-92 = test: NCI 60 five-dose screen HOP-92; settings: Homo sapiens
# NCI-H226 = test: NCI 60 five-dose screen NCI-H226; settings: Homo sapiens
# NCI-H322M = test: NCI 60 five-dose screen NCI-H322M; settings: Homo sapiens
# COLO 205 = test: NCI 60 five-dose screen COLO 205; settings: Homo sapiens
# HCC-2998 = test: NCI 60 five-dose screen HCC-2998; settings: Homo sapiens
# KM12 = test: NCI 60 five-dose screen KM12; settings: Homo sapiens
# SF-268 = test: NCI 60 five-dose screen SF-268; settings: Homo sapiens
# SNB-75 = test: NCI 60 five-dose screen SNB-75; settings: Homo sapiens
# U251 = test: NCI 60 five-dose screen U251; settings: Homo sapiens
# LOX IMVI = test: NCI 60 five-dose screen LOX IMVI; settings: Homo sapiens
# SK-MEL-28 = test: NCI 60 five-dose screen SK-MEL-28; settings: Homo sapiens
# SK-MEL-5 = test: NCI 60 five-dose screen SK-MEL-5; settings: Homo sapiens
# UACC-257 = test: NCI 60 five-dose screen UACC-257; settings: Homo sapiens
# OVCAR-3 = test: NCI 60 five-dose screen OVCAR-3; settings: Homo sapiens
# OVCAR-5 = test: NCI 60 five-dose screen OVCAR-5; settings: Homo sapiens
# OVCAR-8 = test: NCI 60 five-dose screen OVCAR-8; settings: Homo sapiens
# NCI/ADR-RES = test: NCI 60 five-dose screen NCI/ADR-RES; settings: Homo sapiens
# A498 = test: NCI 60 five-dose screen A498; settings: Homo sapiens
# TK-10 = test: NCI 60 five-dose screen TK-10; settings: Homo sapiens
# UO-31 = test: NCI 60 five-dose screen UO-31; settings: Homo sapiens
# DU-145 = test: NCI 60 five-dose screen DU-145; settings: Homo sapiens
# HS 578T = test: NCI 60 five-dose screen HS 578T; settings: Homo sapiens
# T-47D = test: NCI 60 five-dose screen T-47D; settings: Homo sapiens, T47D
# MDA-MB-468 = test: NCI 60 five-dose screen MDA-MB-468; settings: Homo sapiens
# [1] = read-out: LC50 (the source's name) (converted)
# [2] = read-out: LC50 (the source's name)
smiles,measurement,setting,value
O=c1ccc(Cn2c(C(F)(F)F)cc3c(Cl)ncnc32)c[nH]1 [NUCC-0226698],GI50,HL-60(TB),2.09 µM
same,IC50,HL-60(TB),3.63 µM
same,IC (TGI),HL-60(TB),6.03 µM
same,CC50,HL-60(TB); [1],≥ 100 µM
same,GI50,K-562; K562,2.82 µM
same,IC50,K-562; K562,3.39 µM
same,IC (TGI),K-562; K562,100 µM
same,CC50,"K-562; K562, read-out: LC50 (the source's name)",≥ 100 µM
same,GI50,A549/ATCC,64.6 µM
same,IC50,A549/ATCC,100 µM
same,IC (TGI),A549/ATCC,100 µM
same,CC50,A549/ATCC; [1],≥ 100 µM
same,GI50,HOP-62,46.8 µM
same,IC50,HOP-62,100 µM
same,IC (TGI),HOP-62,100 µM
same,CC50,HOP-62; [1],≥ 100 µM
same,GI50,HOP-92,22.9 µM
same,IC50,HOP-92,100 µM
same,IC (TGI),HOP-92,100 µM
same,CC50,HOP-92; [1],≥ 100 µM
same,GI50,NCI-H226,31.6 µM
same,IC50,NCI-H226,100 µM
same,IC (TGI),NCI-H226,100 µM
same,CC50,NCI-H226; [1],≥ 100 µM
same,GI50,NCI-H322M,14.1 µM
same,IC50,NCI-H322M,32.4 µM
same,IC (TGI),NCI-H322M,39.8 µM
same,CC50,NCI-H322M; [1],≥ 100 µM
same,GI50,COLO 205,87.1 µM
same,IC50,COLO 205,100 µM
same,IC (TGI),COLO 205,100 µM
same,CC50,COLO 205; [1],≥ 100 µM
same,GI50,HCC-2998,2.88 µM
same,IC50,HCC-2998,5.25 µM
same,IC (TGI),HCC-2998,10 µM
same,CC50,HCC-2998; [1],34.7 µM
same,GI50,KM12,17.8 µM
same,IC50,KM12,30.2 µM
same,IC (TGI),KM12,39.8 µM
same,CC50,KM12; [1],91.2 µM
same,GI50,SF-268,10.7 µM
same,IC50,SF-268,20.9 µM
same,IC (TGI),SF-268,28.8 µM
same,CC50,SF-268; [1],79.4 µM
same,GI50,SNB-75,10.7 µM
same,IC50,SNB-75,24 µM
same,IC (TGI),SNB-75,23.4 µM
same,CC50,SNB-75; [1],50.1 µM
same,GI50,U251; U-251,22.4 µM
same,IC50,U251; U-251,33.1 µM
same,IC (TGI),U251; U-251,69.2 µM
same,CC50,"U251; U-251, read-out: LC50 (the source's name) (converted)",≥ 100 µM
same,GI50,LOX IMVI,1.66 µM
same,IC50,LOX IMVI,2.88 µM
same,IC (TGI),LOX IMVI,3.09 µM
same,CC50,LOX IMVI; [1],5.89 µM
same,GI50,SK-MEL-28,3.89 µM
same,IC50,SK-MEL-28,7.59 µM
same,IC (TGI),SK-MEL-28,18.6 µM
same,CC50,SK-MEL-28; [1],66.1 µM
same,GI50,SK-MEL-5,4.07 µM
same,IC50,SK-MEL-5,7.08 µM
same,IC (TGI),SK-MEL-5,15.1 µM
same,CC50,SK-MEL-5; [1],38.9 µM
same,GI50,UACC-257,3.16 µM
same,IC50,UACC-257,6.46 µM
same,IC (TGI),UACC-257,12.9 µM
same,CC50,UACC-257; [1],75.9 µM
same,GI50,OVCAR-3,14.8 µM
same,IC50,OVCAR-3,28.8 µM
same,IC (TGI),OVCAR-3,33.1 µM
same,CC50,OVCAR-3; [1],72.4 µM
same,GI50,OVCAR-5,61.7 µM
same,IC50,OVCAR-5,100 µM
same,IC (TGI),OVCAR-5,100 µM
same,CC50,OVCAR-5; [1],≥ 100 µM
same,GI50,OVCAR-8,3.55 µM
same,IC50,OVCAR-8,4.79 µM
same,IC (TGI),OVCAR-8,17.4 µM
same,CC50,OVCAR-8; [1],≥ 100 µM
same,GI50,NCI/ADR-RES,14.1 µM
same,IC50,NCI/ADR-RES,27.5 µM
same,IC (TGI),NCI/ADR-RES,39.8 µM
same,CC50,NCI/ADR-RES; [1],≥ 100 µM
same,GI50,A498,≥ 100 µM
same,IC50,A498,100 µM
same,IC (TGI),A498,100 µM
same,CC50,A498; [1],≥ 100 µM
same,GI50,TK-10,≥ 100 µM
same,IC50,TK-10,100 µM
same,IC (TGI),TK-10,100 µM
same,CC50,TK-10; [1],≥ 100 µM
same,GI50,UO-31,5.01 µM
same,IC50,UO-31,14.1 µM
same,IC (TGI),UO-31,19.1 µM
same,CC50,UO-31; [1],47.9 µM
same,GI50,DU-145,38.9 µM
same,IC50,DU-145,61.7 µM
same,IC (TGI),DU-145,100 µM
same,CC50,DU-145; [1],≥ 100 µM
same,GI50,HS 578T,8.71 µM
same,IC50,HS 578T,100 µM
same,IC (TGI),HS 578T,50.1 µM
same,CC50,HS 578T; [2],≥ 100 µM
same,GI50,T-47D,30.2 µM
same,IC50,T-47D,79.4 µM
same,IC (TGI),T-47D,100 µM
same,CC50,T-47D; [2],≥ 100 µM
same,GI50,MDA-MB-468,2.09 µM
same,IC50,MDA-MB-468,8.13 µM
same,IC (TGI),MDA-MB-468,5.75 µM
same,CC50,MDA-MB-468; [1],25.1 µM

# Source: US20240109903A1, “SUBSTITUTED HETEROCYCLES FOR TREATING CANCER” (Northwestern University, priority 2022, published 2024)
